In patent publication US20060134729A1, “Process for the universal detection of microorganisms and reaction environment permitting the implementation of the process” (HEMOSYSTEM, a corporation of France, priority 2002, published 2006):

Tests used:
Escherichia coli [1] = conditions: EDTA 5 mM; PBS, distilled water, TSB, plasma
Protocol: (§1) Prepare a solution of PicoGreen at 1/2000 (molecular probe) in PBS buffer. EDTA 5 mM: 0.093 g disodic EDTA, QSP 50 mL distilled water. Suspension of bacteria prepared in PBS in distilled water in a TSB (tryptone soy broth) environment and in plasma. • Escherichia coli (CIP 105901) • Staphylococcus epidermidis (CIP 68.21) Adjust the preparations to obtain a suspension with 10^3 bacteria/ml. • 1.2 mL of marking solution • +3 mL of bacterial suspension in the various environments • Incubation 15 minutes at 22° C. • +7 mL of EDTA solution • Filtration on char filter 0.4 μm porosity. III Analysis and Results After filtration, the filter is analyzed by cytometry in solid phase and the results are expressed as the number of fluorescent bacteria.

[2] = tested on: Staphylococcus epidermidis; conditions: EDTA 5 mM; PBS, distilled water, TSB, plasma
Protocol: as §1

Escherichia coli [3] = test: PicoGreen DNA marking with association nisine/EDTA, cytometry in solid phase; format: cell-based
Protocol: (§2) Prepare a solution of PicoGreen at 1/2000 (molecular probe) in PBS buffer (saline phosphate buffer, pH 7.4).
Nisine 10 μg/ml: 0.02 g nisine (starting material at 2.5% weight/weight) QSP 50 ml distilled water. • EDTA 20 mM: 0.372 g disodic EDTA, QSP 50 ml of distilled water, • Prepare a range of EDTA with 0.25; 2.5; 12.5 and 18.75 ml of EDTA 20 mM (concentration range 0.1; 1; 5 and 7.5 mM), • Add 50, 250, 500 μl or 1 ml nisine 10 μg/ml (concentration range […]; 0.05; 0.1 and […]), • QSP 50 ml of distilled water. Suspension of Bacteria Prepared in PBS • Escherichia coli (CIP 105901)
(§3) Adjust the preparations to obtain a suspension with 10^3 bacteria/ml.
• 1.2 ml of marking solution • +3 ml bacterial suspension • Incubation 15 minutes at 22° C. • +7 ml of solution of nisine or nisine/EDTA • Filtration on char filter 0.4 μm porosity. III Analysis and Results
After filtration, the filter is analyzed by cytometry in solid phase and the results expressed as the number of bacteria detected in cytometry in solid phase and as a percentage of bacteria detected relative to the method of enzymatic detection.

[4] = tested on: Escherichia coli, Serratia marcescens, Staphylococcus epidermidis; test: Optimization of nisine/EDTA concentrations, entirety of bacteria tested; format: cell-based
Protocol: as §2
(§4) […] nisine (starting material at 2.5% weight/weight) in 50 ml distilled water or 10 μg/ml,
(§5) Nisine 0.05 μg/ml/EDTA 7.5 mM: 250 μl nisine 10 μg/ml +0.140 g disodic EDTA, QSP 50 mL distilled water,
(§6) Nisine 0.1 μg/ml/EDTA 7.5 mM: […] nisine 10 μg/ml +0.140 g disodic EDTA, QSP 50 mL distilled water,
(§7) Nisine 0.5 μg/ml/EDTA 7.5 mM: 2.5 ml nisine 10 μg/ml+0.140 g disodic EDTA, QSP 50 mL water.
(§8) • Escherichia coli (CIP 105901) • Staphylococcus epidermidis (CIP 68.21) • Serratia marcescens (CIP 103716)
as §3
(§9) • 1.2 mL marking solution • +3 mL bacterial suspension • Incubation 15 minutes at 22° C. • +7 ml solution of nisine/EDTA at different concentrations • Filtration on char filter 0.4 μm porosity. III Analysis and Results
(§10) After filtration, the filter is analyzed by cytometry in solid phase and the results expressed as the number of bacteria detected in cytometry in solid phase.

Pseudomonas aeruginosa [5] = test: Marking with nisine/EDTA/N octyl glucopyranoside; format: cell-based; conditions: NOG 0.25% and 0.5% with nisine 0.2 μg/ml, EDTA 7.5 mM
Protocol: (§11) 100 μg/ml: […] (starting material at 2.5% weight/weight) QSP 50 ml distilled water. • EDTA 100 mM: […] disodic EDTA, QSP 50 ml distilled water, • N octyl glucopyranoside 5%: 2.5 g in 50 ml distilled water • 20, 10, 5 or 2.5 ml NOG at 5% • +3.75 ml EDTA 100 mM • +0.1 ml […] 100 μg/ml • QSP 50 ml distilled water • This solution is at pH 4.8.

[6] = tested on: Staphylococcus epidermidis; test: Marking with nisine/EDTA/N octyl glucopyranoside; format: cell-based; conditions: NOG 0.25% and 0.5% with nisine 0.2 μg/ml, EDTA 7.5 mM
Protocol: as §11

[7] = tested on: Escherichia coli, Pseudomonas aeruginosa and Serratia marcescens; test: Marking in the presence of chlorohexidine alone, Gram- strains; format: cell-based; conditions: tested range 0.01%, 0.005%, 0.001%
Protocol: (§12) Test implementing chlorohexidine only as permeabilizing agent for favoring the penetration of the bacterial marking agent. […] The counting on a Petri dish at 48 hours takes place with the reference method. The results of this experiment with a composition of the reaction environment comprising chlorohexidine as cellular penetration reactant to improve the marking of Escherichia coli, Pseudomonas aeruginosa and Serratia marcescens (Gram (−) bacterial strains) and Staphylococcus epidermidis are illustrated in FIG. 8.

[8] = tested on: Staphylococcus epidermidis; test: Marking in the presence of chlorohexidine alone, Gram+; format: cell-based; conditions: chlorohexidine 0.005%
Protocol: as §12

Pseudomonas aeruginosa [9] = test: Marking in the presence of chlorohexidine alone in different environments; format: cell-based; conditions: bacteria in PBS, platelet concentrate, autologous plasma
Protocol: Test implementing chlorohexidine only as permeabilizing agent for favoring the penetration of the bacterial marking agent. […] The counting on a Petri dish at 48 hours takes place with the reference method.

[10] = tested on: Escherichia coli, Staphylococcus epidermidis, Serratia marcescens, Pseudomonas aeruginosa; test: Marking with association chlorohexidine/N-octyl glucopyranoside; format: cell-based; conditions: most elevated chlorohexidine concentration (0.001% vs 0.0005%) with NOG; PBS and platelet concentrate
Description: The results of this experiment showing the marking of DA and the detection of marked bacteria in the presence of a composition of the reaction environment comprising chlorohexidine in association with NOG for increasing the permeabilizing power and the penetration of the marker are illustrated in FIGS. 10A and 10B.

[11] = tested on: Staphylococcus epidermidis; test: PicoGreen DNA marking with nisine alone, cytometry in solid phase; format: cell-based; conditions: nisine solutions 2, 10, 50 μg/ml, bacteria in PBS
Protocol: The use of nisine solely as a permeabilizing agent for facilitating penetration of the marking agent.
Prepare a series of dilutions of nisine (starting material at 2.5% weight/weight) in distilled water: • 0.1 g nisine in 50 ml distilled water=solution 50 μg/ml, • 0.02 g of nisine in 50 ml distilled water=solution 10 μg/ml, • 0.004 g of nisine in 50 ml distilled water=solution 2 μg/ml. Suspension of Bacteria Prepared in PBS • Escherichia coli (CIP 105901) • Staphylococcus epidermidis (68.21)
Adjust the preparations in order to obtain a suspension with 10^4 bacteria/ml.

Escherichia coli [12] = test: Optimization of nisine/EDTA concentrations, cytometry in solid phase; format: cell-based; conditions: EDTA fixed at 7.5 mM
Protocol: as §2, §4, §5, §6, §7, §8, §3, §9, §10

O=C([O-])CN(CCN(CC(=O)[O-])CC(=O)O)CC(=O)O.[Na+].[Na+] [EDTA, disodic EDTA]
marking of Gram- bacteria with EDTA by itself (Escherichia coli [1]): does not permit a correct marking
marking of Gram+ bacteria with EDTA by itself [2]: does not permit a correct marking
EDTA concentration at which percentage of marked Escherichia coli is maximal (Escherichia coli [3]; with nisine 0.1 μg/ml): 7.5 mM
EDTA concentration giving better detection of the entirety of bacteria tested ([4]; associated with nisine 0.2 μg/ml): 7.5 mM

CCCCCCCCO[C@@H]1O[C@H](CO)[C@@H](O)[C@H](O)[C@H]1O [N octyl glucopyranoside, N-octyl β D-glucopyranoside]
effect of addition on the marking of Pseudomonas aeruginosa (Pseudomonas aeruginosa [5]): positive effects
effect of addition on the marking of Staphylococcus epidermidis [6]: positive effects

CC(=O)O.CC(=O)O.NC(=N\CCCCCC/N=C(N)/N=C(\N)Nc1ccc(Cl)cc1)/N=C(\N)Nc1ccc(Cl)cc1 [chlorohexidine, Diacetate chlorohexidine]
optimal concentration for the detection of Gram- bacteria [7]: 0.005%
effect on Gram+ bacteria [8]: toxic
effect of plasma on cellular penetration of the marker with chlorohexidine (Pseudomonas aeruginosa [9]): presence of plasma antagonizes the effect
marking of the bacteria [10]: best marking

nisine
preferable nisine concentration for marking [11]: low concentrations are preferable
marking of the Gram+ on addition of nisine ([11]; PicoGreen): good marking
nisine concentration at which percentage of marked Escherichia coli is maximal (Escherichia coli [3]; with EDTA 7.5 mM): 0.1 µg/mL
nisine concentration at which percentage of marked Escherichia coli is maximal (Escherichia coli [12]): 0.1 µg/mL
nisine concentration giving better detection of the entirety of bacteria tested ([4]; associated with EDTA 7.5 mM): 0.2 µg/mL
